Patent US20250099420A1, “SMALL MOLECULE MODULATORS OF GPR139 COMPLEX” (University of Florida Research Foundation, Incorporated, priority 2022, published 2025)
Like-named read-outs stand apart in the source and are kept apart here.

Assays:
GPR139 = biological target: T1, GPR139 (Homo sapiens, UniProt Q6DWJ6); assay: GPR139 Agonist titration / agonist counterscreen assay (calcium detection, HEK-GPR139 cells); assay type: cell-based; design: expressed in transfected cells; host or cells: HEK Aequorin cells, Maxcyte transient transfection; details: GPR139 Agonist Activity; for Averaged Max % Response (±St. Dev.): activity relative to known control; for EC50: read-out: EC50
T1 sequence (Q6DWJ6 1-353): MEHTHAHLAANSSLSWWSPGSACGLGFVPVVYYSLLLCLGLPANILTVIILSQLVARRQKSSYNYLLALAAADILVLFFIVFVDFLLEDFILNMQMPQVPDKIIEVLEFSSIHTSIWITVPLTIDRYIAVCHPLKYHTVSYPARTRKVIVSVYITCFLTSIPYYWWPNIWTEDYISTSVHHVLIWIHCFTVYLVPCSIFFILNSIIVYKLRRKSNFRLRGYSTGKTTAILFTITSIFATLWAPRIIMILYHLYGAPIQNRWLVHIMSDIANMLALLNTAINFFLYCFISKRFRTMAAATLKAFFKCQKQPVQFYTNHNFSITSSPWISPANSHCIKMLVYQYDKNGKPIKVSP
Description: GPR activity was assessed using a calcium detection assay. […] Negative control samples were treated with DMSO. […] Intracellular calcium was measured using Calcium 5.

parental HEK cells = assay: HEK parental Agonist Counterscreen Assay (non-transfected cells); assay type: cell-based; details: for Averaged Max % Response (±St. Dev.): activity relative to known control
From the text: The high control for the agonist counterscreen was Forskolin not acetylcholine.

[1] = values printed in E-notation without unit
[2] = Homo sapiens, HEK293, HEK Agonist Activity, parental non-transfected HEK cells
[3] = Homo sapiens, HEK293, HEK Agonist Activity section of Table 4 (parental HEK counterscreen)
[4] = HEK Agonist Activity section of Table 4 (parental HEK counterscreen)

| Compound | Averaged Max % Response (±St. Dev.) (GPR139) [%] | Lipophilic Efficiency (logD) (GPR139; based on logD) | Lipophilic Efficiency (logP) (GPR139; based on logP) | Hill Slope (GPR139; fitted dose-response curve) | Efficiency Ligand (GPR139; ligand efficiency) | EC50 (GPR139; [1]) [nM] | Lipophilic Efficiency (logD) (parental HEK cells; HEK Agonist Activity) | Lipophilic Efficiency (logP) (parental HEK cells; HEK Agonist Activity) | Lipophilic Efficiency (logD) (parental HEK cells; HEK Agonist Activity section) | Lipophilic Efficiency (logP) (parental HEK cells; HEK Agonist Activity section) | Averaged Max % Response (±St. Dev.) (parental HEK cells; HEK Agonist Activity) [%] | EC50 (parental HEK cells; [2]) [µM] | Averaged Max % Response (±St. Dev.) (parental HEK cells; HEK Agonist Activity section) [%] | EC50 (parental HEK cells; [3]) [µM] | further results |
| --- | --- | --- | --- | --- | --- | --- | --- | --- | --- | --- | --- | --- | --- | --- | --- |
| CC(CCc1ccccc1)NC(=O)Cn1cc2c(n1)CCCC2 (centres unmarked) [SR-01000137757] | 160.07 ± 33.89 | 4.32 | 4.32 | 0.09 | 0.48 | 15.3 | 1.35 | 1.35 |  |  | −12.95 ± 5.94 | > 14.1 |  |  |  |
| COc1ccc(OC)c(NC(=O)NNC(=O)C(C)Oc2ccc(Cl)cc2Cl)c1 (centres unmarked) [SR-01000276878] | 97.36 ± 11.63 | 4.40 | 4.36 | 0.75 | 0.38 | 23.9 | 1.62 | 1.58 |  |  | 6.40 ± 8.50 | > 14.1 |  |  |  |
| O=C(CN1CCCN(Cc2ccc(F)cc2Cl)C1=O)NC1CCCCCC1 [SR-01000146442] | 108.38 ± 13.78 | 4.80 | 4.80 | 0.79 | 0.41 | 14.9 | 1.82 | 1.82 |  |  | −6.48 ± 10.66 | > 14.1 |  |  |  |
| O=C(NCCn1ccc2ccccc21)c1cccc(Cl)c1 [SR-01000124131] | 93.55 ± 12.47 |  |  |  |  |  |  |  | 1.08 | 1.08 |  |  | −0.13 ± 10.83 | > 14.1 | Efficiency Ligand (GPR139): 0.42; Hill Slope (GPR139): 0.85; Lipophilic Efficiency (logD) (GPR139): 2.55; Lipophilic Efficiency (logP) (GPR139): 2.55; EC50 (GPR139; HEK-GPR139 cells): 472 nM |
| O=C(CN1C(=O)NC2(CCc3ccccc3C2)C1=O)Nc1cccc2ccccc12 (centres unmarked) [SR-01000042749] | 74.83 ± 7.16 |  |  |  |  |  |  |  | 1.39 | 1.39 |  |  | −8.38 ± 6.55 | > 14.1 | Efficiency Ligand (GPR139): 0.29; Hill Slope (GPR139): 0.27; Lipophilic Efficiency (logD) (GPR139): 2.77; Lipophilic Efficiency (logP) (GPR139): 2.77; EC50 (GPR139; HEK-GPR139 cells): 585 nM |
| CN(C(=O)CN1C(=O)NC(C)(c2ccc3ccccc3c2)C1=O)C1CCCCC1 (centres unmarked) [SR-01000048373] | 118.34 ± 15.06 | 3.96 | 3.96 | 0.66 | 0.34 | 96.7 |  |  | 1.79 | 1.79 |  |  | 9.79 ± 7.30 |  | EC50 (parental HEK cells; [4]): > 14.3 µM |
| O=C(C1CC(Cc2cccc3ccccc23)=NO1)N1CCC(C(O)Cc2ccccc2)CC1 (centres unmarked) [SR-01000185712] | 110.27 ± 5.24 | 2.48 | 2.48 | 0.46 | 0.29 | 122 |  |  | 0.41 | 0.41 |  |  | 9.02 ± 5.86 |  | EC50 (parental HEK cells; [4]): > 14.1 µM |
| CCN(CCCNC(=O)CN1CCC(Cc2ccccc2C)C1=O)c1cccc(C)c1 (centres unmarked) [SR-01000150393] | 97.57 ± 16.88 | 3.55 | 3.54 | 1.18 | 0.31 |  |  |  | 1.45 | 1.43 |  |  | 10.10 ± 9.60 | > 14.1 |  |
| O=C(Cn1ncc2c1-c1ccccc1OC2)Nc1ccc(Cl)cc1 [SR-01000098980] | 103.90 ± 24.19 |  |  |  |  |  |  |  | 1.77 | 1.77 |  |  | 16.39 ± 16.07 |  | Efficiency Ligand (GPR139): 0.36; Hill Slope (GPR139): 0.43; Lipophilic Efficiency (logD) (GPR139): 3.09; Lipophilic Efficiency (logP) (GPR139): 3.09; EC50 (GPR139; HEK-GPR139 cells): 680 nM; EC50 (parental HEK cells; [4]): > 14.1 µM |
| CC1CCCC(NC(=O)CN2CCCN(Cc3ccc(F)cc3Cl)C2=O)C1C (centres unmarked) [SR-01000146420] | 113.46 ± 20.46 | 4.29 | 4.29 | 1.05 | 0.38 | 29.6 | 1.61 | 1.61 |  |  | 20.27 ± 3.59 | > 14.1 |  |  |  |
| O=C(CN1CC(=O)N(Cc2ccc(O)cc2)C(c2ccccc2Cl)C1=O)NCc1ccco1 (centres unmarked) [SR-01000583711] | 95.83 ± 14.92 |  |  |  |  |  |  |  | 1.87 | 1.87 |  |  | 9.29 ± 2.62 | > 11.1 | Efficiency Ligand (GPR139): 0.27; Hill Slope (GPR139): 0.32; Lipophilic Efficiency (logD) (GPR139): 3.24; Lipophilic Efficiency (logP) (GPR139): 3.24; EC50 (GPR139; HEK-GPR139 cells): 469 nM |
| CC(C)(C)n1c2c(c(=O)[nH]c1=O)C(NC(=O)CCC1CCCCC1)(C(F)(F)F)C(=O)N2 (centres unmarked) [SR-01000091502] | 88.58 ± 8.42 | 4.63 | 4.59 | 0.85 | 0.31 | 141 |  |  | 2.63 | 2.59 |  |  | −12.00 ± 4.68 |  | EC50 (parental HEK cells; [4]): > 14.1 µM |
| COc1ccccc1CC1(C)NC(=O)N(CC(=O)NC(C)c2cccc(Cl)c2)C1=O (centres unmarked) [SR-01000069564] | 87.90 ± 18.60 | 4.85 | 4.85 | 0.93 | 0.36 | 17.2 | 1.93 | 1.93 |  |  | −3.54 ± 8.88 |  |  |  | EC50 (parental HEK cells; HEK Agonist Activity, parental non-transfected HEK cells): > 14.4 µM |

More lines, main results first:

| Averaged Max % Response (±St. Dev.) (GPR139) [%] | Lipophilic Efficiency (logD) (GPR139; based on logD) | Lipophilic Efficiency (logP) (GPR139; based on logP) | Hill Slope (GPR139; fitted dose-response curve) | Efficiency Ligand (GPR139; ligand efficiency) | EC50 (GPR139; [1]) [nM] | Lipophilic Efficiency (logD) (parental HEK cells; HEK Agonist Activity) | Lipophilic Efficiency (logP) (parental HEK cells; HEK Agonist Activity) | Lipophilic Efficiency (logD) (parental HEK cells; HEK Agonist Activity section) | Lipophilic Efficiency (logP) (parental HEK cells; HEK Agonist Activity section) | Compound | Averaged Max % Response (±St. Dev.) (parental HEK cells; HEK Agonist Activity) [%] | EC50 (parental HEK cells; [2]) [µM] | Averaged Max % Response (±St. Dev.) (parental HEK cells; HEK Agonist Activity section) [%] | EC50 (parental HEK cells; [3]) [µM] | further results |
| --- | --- | --- | --- | --- | --- | --- | --- | --- | --- | --- | --- | --- | --- | --- | --- |
| 68.10 ± 8.73 |  |  |  |  |  |  |  | 0.78 | 0.78 | Cc1ccc(NC(=O)NCCCc2ccccc2)cc1 [SR-01000299370] |  |  | −5.05 ± 8.64 | > 14.1 | Efficiency Ligand (GPR139): 0.38; Hill Slope (GPR139): 0.74; Lipophilic Efficiency (logD) (GPR139): 1.36; Lipophilic Efficiency (logP) (GPR139): 1.36; EC50 (GPR139; HEK-GPR139 cells): 3700 nM |
| 113.17 ± 28.03 | 3.08 | 2.96 | 0.85 | 0.39 | 235 |  |  | 1.26 | 1.13 | CC(Oc1ccc(Cl)cc1Cl)C(=O)NNC(=O)c1ccc(F)cc1 (centres unmarked) [SR-01000520452] |  |  | 1.29 ± 6.31 | > 15.7 |  |
| 108.04 ± 6.43 | 4.08 | 4.08 | 0.77 | 0.39 | 27.4 | 1.38 | 1.37 |  |  | O=C(COc1ccccc1Cl)NNC(=O)CSc1ccc2ccccc2c1 [SR-01000071098] | 24.54 ± 7.58 | > 14.1 |  |  |  |
| 95.13 ± 3.75 | 4.08 | 4.08 | 1.31 | 0.39 | 62 |  |  | 1.73 | 1.73 | COc1ccc(CCC(=O)Nc2ccc(-c3cn[nH]c3)c(OC)c2)cc1 [SR-00000005955] |  |  | 18.59 ± 8.23 | > 14.1 |  |
| 94.34 ± 21.26 | 5.44 | 5.43 | 0.66 | 0.36 |  |  |  | 3.09 | 3.08 | Cc1ccc(OCC(=O)NNC(=O)CN(C)S(=O)(=O)c2ccc(C)cc2)cc1 [SR-01000069435] |  |  | 14.76 ± 3.78 | > 14.6 |  |
| 123.74 ± 9.56 | 5.31 | 5.26 | 0.81 | 0.50 | 16.2 | 2.34 | 2.30 |  |  | O=C(CSc1ccc(Cl)cc1)NNC(=O)c1ccc(O)cc1 [SR-01000060349] | 36.27 ± 9.28 | > 15.1 |  |  |  |
